Laboratory results reported in US20250255867A1 (Kadmon Corporation, LLC, priority 2022, published 2025).

Settings: Cohort 3 400 mg QD

CC(C)NC(=O)COc1cccc(-c2nc(Nc3ccc4[nH]ncc4c3)c3ccccc3n2)c1 [Belumosudil, 2-{3-[4-(1H-indazol-5-ylamino)-2-quinazolinyl]phenoxy}-N-(propan-2-yl) acetamide]
Glaucoma: Affected/At Risk (%): (0%) | Glucose urine present: # Events: 3 | Glucose urine present: Affected/At Risk: 1/21 | Glucose urine present: Affected/At Risk (%): (4.76%) | Graft versus host disease in gastrointestinal tract: # Events: 0 | Graft versus host disease in gastrointestinal tract: Affected/At Risk: 0/21 | Graft versus host disease in gastrointestinal tract: Affected/At Risk (%): (0%) | Gynaecomastia: # Events: 0 | Gynaecomastia: Affected/At Risk: 0/21 | Gynaecomastia: Affected/At Risk (%): (0%) | Haematuria: # Events: 2 | Haematuria: Affected/At Risk: 1/21 | Haematuria: Affected/At Risk (%): (4.76%) | Hair growth abnormal: # Events: 0 | Hair growth abnormal: Affected/At Risk: 0/21 | Hair growth abnormal: Affected/At Risk (%): (0%) | Headache: # Events: 8 | Headache: Affected/At Risk: 6/21 | Headache: Affected/At Risk (%): (28.57%) | Hodgkin's disease recurrent: # Events: 0 | Hodgkin's disease recurrent: Affected/At Risk: 0/21 | Hodgkin's disease recurrent: Affected/At Risk (%): (0%) | Hordeolum: # Events: 1 | Hordeolum: Affected/At Risk: 1/21 | Hordeolum: Affected/At Risk (%): (4.76%) | Hot flush: # Events: 0 | Hot flush: Affected/At Risk: 0/21 | Hot flush: Affected/At Risk (%): (0%) | Hyperglycemia: # Events: 8 | Hyperglycemia: Affected/At Risk: 3/21 | Hyperglycemia: Affected/At Risk (%): (14.29%) | Hyperhidrosis: # Events: 1 | Hyperhidrosis: Affected/At Risk: 1/21 | Hyperhidrosis: Affected/At Risk (%): (4.76%) | Hyperkalaemia: # Events: 4 | Hyperkalaemia: Affected/At Risk: 3/21 | Hyperkalaemia: Affected/At Risk (%): (14.29%) | Hypertension: # Events: 6 | Hypertension: Affected/At Risk: 4/21 | Hypertension: Affected/At Risk (%): (19.05%) | Hyperthyroidism: # Events: 1 | Hyperthyroidism: Affected/At Risk: 1/21 | Hyperthyroidism: Affected/At Risk (%): (4.76%) | Hypertriglyceridaemia: # Events: 0 | Hypertriglyceridaemia: Affected/At Risk: 0/21 | Hypertriglyceridaemia: Affected/At Risk (%): (0%) | Hyperuricaemia: # Events: 5 | Hyperuricaemia: Affected/At Risk: 3/21 | Hyperuricaemia: Affected/At Risk (%): (14.29%) | Hypoaesthesia: # Events: 1 | Hypoaesthesia: Affected/At Risk: 1/21 | Hypoaesthesia: Affected/At Risk (%): (4.76%) | Hypocalcaemia: # Events: 1 | Hypocalcaemia: Affected/At Risk: 1/21 | Hypocalcaemia: Affected/At Risk (%): (4.76%) | Hypogonadism: # Events: 0 | Hypogonadism: Affected/At Risk: 0/21 | Hypogonadism: Affected/At Risk (%): (0%) | Hypokalaemia: # Events: 0 | Hypokalaemia: Affected/At Risk: 0/21 | Hypokalaemia: Affected/At Risk (%): (0%) | Hypomagnesaemia: # Events: 1 | Hypomagnesaemia: Affected/At Risk: 1/21 | Hypomagnesaemia: Affected/At Risk (%): (4.76%) | Hyponatraemia: # Events: 2 | Hyponatraemia: Affected/At Risk: 2/21 | Hyponatraemia: Affected/At Risk (%): (9.52%) | Hypophosphataemia: # Events: 1 | Hypophosphataemia: Affected/At Risk: 1/21 | Hypophosphataemia: Affected/At Risk (%): (4.76%) | Hypothermia: # Events: 0 | Hypothermia: Affected/At Risk: 0/21 | Hypothermia: Affected/At Risk (%): (0%) | Hypothyroidism: # Events: 4 | Hypothyroidism: Affected/At Risk: 3/21 | Hypothyroidism: Affected/At Risk (%): (14.29%) | Hypoxia: # Events: 3 | Hypoxia: Affected/At Risk: 3/21 | Hypoxia: Affected/At Risk (%): (14.29%) | Impaired healing: # Events: 0 | Impaired healing: Affected/At Risk: 0/21 | Impaired healing: Affected/At Risk (%): (0%) | Influenza like illness: # Events: 0 | Influenza like illness: Affected/At Risk: 0/21 | Influenza like illness: Affected/At Risk (%): (0%) | Influenza: # Events: 2 | Influenza: Affected/At Risk: 2/21 | Influenza: Affected/At Risk (%): (9.52%) | Insomnia: # Events: 3 | Insomnia: Affected/At Risk: 3/21 | Insomnia: Affected/At Risk (%): (14.29%) | Irritability: # Events: 0 | Irritability: Affected/At Risk: 0/21 | Irritability: Affected/At Risk (%): (0%) | Joint range of motion decreased: # Events: 1 | Joint range of motion decreased: Affected/At Risk: 1/21 | Joint range of motion decreased: Affected/At Risk (%): (4.76%) | Lacrimation increased: # Events: 0 | Lacrimation increased: Affected/At Risk: 0/21 | Lacrimation increased: Affected/At Risk (%): (0%) | Leukaemia recurrent: # Events: 0 | Leukaemia recurrent: Affected/At Risk: 0/21 | Leukaemia recurrent: Affected/At Risk (%): (0%) | Leukocytosis: # Events: 1 | Leukocytosis: Affected/At Risk: 1/21 | Leukocytosis: Affected/At Risk (%): (4.76%) | Ligament sprain: # Events: 0 | Ligament sprain: Affected/At Risk: 0/21 | Ligament sprain: Affected/At Risk (%): (0%) | Limb injury: # Events: 1 | Limb injury: Affected/At Risk: 1/21 | Limb injury: Affected/At Risk (%): (4.76%) | Macular degeneration: # Events: 0 | Macular degeneration: Affected/At Risk: 0/21 | Macular degeneration: Affected/At Risk (%): (0%) | Migraine: # Events: 0 | Migraine: Affected/At Risk: 0/21 | Migraine: Affected/At Risk (%): (0%) | Muscle spasms: # Events: 6 | Muscle spasms: Affected/At Risk: 6/21 | Muscle spasms: Affected/At Risk (%): (28.57%) | Muscle spasticity: # Events: 1 | Muscle spasticity: Affected/At Risk: 1/21 | Muscle spasticity: Affected/At Risk (%): (4.76%) | Muscular weakness: # Events: 2 | Muscular weakness: Affected/At Risk: 2/21 | Muscular weakness: Affected/At Risk (%): (9.52%) | Musculoskeletal chest pain: # Events: 1 | Musculoskeletal chest pain: Affected/At Risk: 1/21 | Musculoskeletal chest pain: Affected/At Risk (%): (4.76%) | Myalgia: # Events: 3 | Myalgia: Affected/At Risk: 3/21 | Myalgia: Affected/At Risk (%): (14.29%) | Nail disorder: # Events: 0 | Nail disorder: Affected/At Risk: 0/21 | Nail disorder: Affected/At Risk (%): (0%) | Nasal congestion: # Events: 1 | Nasal congestion: Affected/At Risk: 1/21 | Nasal congestion: Affected/At Risk (%): (4.76%) | Nausea: # Events: 12 | Nausea: Affected/At Risk: 9/21 | Nausea: Affected/At Risk (%): (42.86%) | Neck pain: # Events: 0 | Neck pain: Affected/At Risk: 0/21 | Neck pain: Affected/At Risk (%): (0%) | Nephrotic syndrome: # Events: 0 | Nephrotic syndrome: Affected/At Risk: 0/21 | Nephrotic syndrome: Affected/At Risk (%): (0%) | Neuropathy peripheral: # Events: 2 | Neuropathy peripheral: Affected/At Risk: 1/21 | Neuropathy peripheral: Affected/At Risk (%): (4.76%) | Neutrophil count decreased: # Events: 1 | Neutrophil count decreased: Affected/At Risk: 1/21 | Neutrophil count decreased: Affected/At Risk (%): (4.76%) | Nocturia: # Events: 0 | Nocturia: Affected/At Risk: 0/21 | Nocturia: Affected/At Risk (%): (0%) | Non-cardiac chest pain: # Events: 1 | Non-cardiac chest pain: Affected/At Risk: 1/21 | Non-cardiac chest pain: Affected/At Risk (%): (4.76%) | Obesity: # Events: 0 | Obesity: Affected/At Risk: 0/21 | Obesity: Affected/At Risk (%): (0%) | Oedema peripheral: # Events: 6 | Oedema peripheral: Affected/At Risk: 6/21 | Oedema peripheral: Affected/At Risk (%): (28.57%) | Oedema: # Events: 0 | Oedema: Affected/At Risk: 0/21 | Oedema: Affected/At Risk (%): (0%) | Oesophageal ulcer: # Events: 0 | Oesophageal ulcer: Affected/At Risk: 0/21 | Oesophageal ulcer: Affected/At Risk (%): (0%) | Oral candidiasis: # Events: 0 | Oral candidiasis: Affected/At Risk: 0/21 | Oral candidiasis: Affected/At Risk (%): (0%) | Oropharyngeal pain: # Events: 1 | Oropharyngeal pain: Affected/At Risk: 1/21 | Oropharyngeal pain: Affected/At Risk (%): (4.76%) | Orthopnoea: # Events: 0 | Orthopnoea: Affected/At Risk: 0/21 | Orthopnoea: Affected/At Risk (%): (0%) | Osteonecrosis: # Events: 0 | Osteonecrosis: Affected/At Risk: 0/21 | Osteonecrosis: Affected/At Risk (%): (0%) | Osteopenia: # Events: 0 | Osteopenia: Affected/At Risk: 0/21 | Osteopenia: Affected/At Risk (%): (0%) | Osteoporosis: # Events: 0 | Osteoporosis: Affected/At Risk: 0/21 | Osteoporosis: Affected/At Risk (%): (0%) | Overdose: # Events: 0 | Overdose: Affected/At Risk: 0/21 | Overdose: Affected/At Risk (%): (0%) | Pain in extremity: # Events: 5 | Pain in extremity: Affected/At Risk: 4/21 | Pain in extremity: Affected/At Risk (%): (19.05%) | Pain: # Events: 1 | Pain: Affected/At Risk: 1/21 | Pain: Affected/At Risk (%): (4.76%) | Palpitations: # Events: 1 | Palpitations: Affected/At Risk: 1/21 | Palpitations: Affected/At Risk (%): (4.76%) | Paraesthesia: # Events: 1 | Paraesthesia: Affected/At Risk: 1/21 | Paraesthesia: Affected/At Risk (%): (4.76%) | Participants with TEAE: 20 (95%) participants | Participants with TESAE: 13 (62%) participants | Pericardial effusion: # Events: 0 | Pericardial effusion: Affected/At Risk: 0/21 | Pericardial effusion: Affected/At Risk (%): (0%) | Peripheral coldness: # Events: 0 | Peripheral coldness: Affected/At Risk: 0/21 | Peripheral coldness: Affected/At Risk (%): (0%) | Peripheral sensory neuropathy: # Events: 0 | Peripheral sensory neuropathy: Affected/At Risk: 0/21 | Peripheral sensory neuropathy: Affected/At Risk (%): (0%) | Phlebitis: # Events: 0 | Phlebitis: Affected/At Risk: 0/21 | Phlebitis: Affected/At Risk (%): (0%) | Photophobia: # Events: 2 | Photophobia: Affected/At Risk: 2/21 | Photophobia: Affected/At Risk (%): (9.52%) | Platelet count decreased: # Events: 0 | Platelet count decreased: Affected/At Risk: 0/21 | Platelet count decreased: Affected/At Risk (%): (0%) | Pleural effusion: # Events: 1 | Pleural effusion: Affected/At Risk: 1/21 | Pleural effusion: Affected/At Risk (%): (4.76%) | Pneumonia respiratory syncytial viral: # Events: 0 | Pneumonia respiratory syncytial viral: Affected/At Risk: 0/21 | Pneumonia respiratory syncytial viral: Affected/At Risk (%): (0%) | Pneumonia: # Events: 0 | Pneumonia: Affected/At Risk: 0/21 | Pneumonia: Affected/At Risk (%): (0%) | Pollakiuria: # Events: 0 | Pollakiuria: Affected/At Risk: 0/21 | Pollakiuria: Affected/At Risk (%): (0%) | Presyncope: # Events: 0 | Presyncope: Affected/At Risk: 0/21 | Presyncope: Affected/At Risk (%): (0%) | Productive cough: # Events: 2 | Productive cough: Affected/At Risk: 1/21 | Productive cough: Affected/At Risk (%): (4.76%) | Proteinuria: # Events: 0 | Proteinuria: Affected/At Risk: 0/21 | Proteinuria: Affected/At Risk (%): (0%) | Pruritus: # Events: 0 | Pruritus: Affected/At Risk: 0/21 | Pruritus: Affected/At Risk (%): (0%) | Pseudomonas infection: # Events: 0 | Pseudomonas infection: Affected/At Risk: 0/21 | Pseudomonas infection: Affected/At Risk (%): (0%) | Pulmonary mass: # Events: 1 | Pulmonary mass: Affected/At Risk: 1/21 | Pulmonary mass: Affected/At Risk (%): (4.76%) | Pyrexia: # Events: 3 | Pyrexia: Affected/At Risk: 3/21 | Pyrexia: Affected/At Risk (%): (14.29%) | Rash erythematous: # Events: 0 | Rash erythematous: Affected/At Risk: 0/21 | Rash erythematous: Affected/At Risk (%): (0%) | Rash maculo-papular: # Events: 0 | Rash maculo-papular: Affected/At Risk: 0/21 | Rash maculo-papular: Affected/At Risk (%): (0%) | Rash pustular: # Events: 0 | Rash pustular: Affected/At Risk: 0/21 | Rash pustular: Affected/At Risk (%): (0%) | Rash: # Events: 1 | Rash: Affected/At Risk: 1/21 | Rash: Affected/At Risk (%): (4.76%) | Red blood cells urine positive: # Events: 0 | Red blood cells urine positive: Affected/At Risk: 0/21 | Red blood cells urine positive: Affected/At Risk (%): (0%) | Renal failure: # Events: 0
